# Measurements: patent US10266548B2, “Substituted benzylindazoles for use as Bub1 kinase inhibitors in the treatment of hyperproliferative diseases” (Bayer Intellectual Property GmbH, priority 2011, dated 2019)
# Where two headings read alike, the source gives them in different places.
# Legend:
# [1] = biological target: catalytic domain of human Bub1 (amino acids 704-1085) (Homo sapiens (Human), UniProt O43683); test: Bub1 kinase assay (TR-FRET); assay type: biochemical; settings: 10 μM ATP, 1 μM peptide substrate; read-out: Biological Assay 1: Bub1 kinase assay median IC50
# In short: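 Phosphoserine product detected by TR-FRET (Eu-labeled anti-mouse IgG/anti-phosphoserine antibody to streptavidin-XL665) after 1 h at 22 °C. IC50 from 4-parameter logistic fit.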
# [2] = test system: HeLa cells; test: Proliferation assay (HeLa cell line); assay type: cell-based; settings: read-out: Biological Assay 2: Proliferation assay (HeLa cell line) median IC50
# [3] = Homo sapiens, 96 h, 4 days, crystal violet
"IC50 [2, 3]",SMILES,IC50 [1],"IC50 ([2]; 4 days, crystal violet)","IC50 ([2]; Homo sapiens, 96 h)"
9000 nM,"COc1cc(Cn2nc(-c3ncc(OC)c(Nc4ccncc4)n3)c3ccccc32)cc(OC)c1 [Example 2-29-1, 2-[1-(3,5-dimethoxybenzyl)-1H-indazol-3-yl]-5-methoxy-N-(pyridin-4-yl)pyrimidin-4-amine]",23 nM,–,–
–,"CCOc1cc(F)c(Cn2nc(-c3ncc(OC)c(Nc4ccncc4CO)n3)c3ccccc32)c(F)c1 [Example 8-4, [4-({2-[1-(4-ethoxy-2,6-difluorobenzyl)-1H-indazol-3-yl]-5-methoxypyrimidin-4-yl}amino)pyrimidin-3-yl]methanol]",13 nM,5000 nM,–
–,COc1cnc(-c2nn(Cc3c(F)cc(O)cc3F)c3ccccc23)nc1Nc1ccncc1C(N)=O [Example 25-4],5.03 nM,10000 nM,–
–,"COc1cnc(-c2nn(Cc3c(F)cc(OCCOC(C)=O)cc3F)c3ccccc23)nc1Nc1ccncc1 [Example 2-51-1, 2-[3,5-difluoro-4-({3-[5-methoxy-4-(pyridin-4-ylamino)pyrimidin-2-yl]-1H-indazol-1-yl}methyl)phenoxy]ethyl acetate]",10 nM,–,2700 nM
–,"COc1ccc(Cn2nc(-c3ncc(OC)c(Nc4ccncc4F)n3)c3ccccc32)cc1 [Example 34-3, N-(3-fluoropyridin-4-yl)-5-methoxy-2-[1-(4-methoxybenzyl)-1H-indazol-3-yl]pyrimidin-4-amine]",28 nM,–,8700 nM
–,"NC(=O)c1cnc(-c2nn(Cc3ccccc3F)c3ccccc23)nc1Nc1ccncc1 [Example 32-1, 2-[1-(2-fluorobenzyl)-1H-indazol-3-yl]-4-(pyridin-4-ylamino)pyrimidine-5-carboxamide]",120 nM,–,≥ 10000 nM
–,"CCCOc1cc(F)c(Cn2nc(-c3ncc(OC)c(Nc4ccncc4)n3)c3ccccc32)c(F)c1 [Example 2-52-1, 2-[1-(2,6-difluoro-4-propoxybenzyl)-1H-indazol-3-yl]-5-methoxy-N-(pyridin-4-yl)pyrimidin-4-amine]",11 nM,–,2100 nM
–,"COc1cnc(-c2nn(Cc3ccccc3F)c3ccccc23)nc1Nc1ccncc1 [Example 24-3, 2-[1-(2-fluorobenzyl)-1H-indazol-3-yl]-5-methoxy-N-(pyridin-4-yl)pyrimidin-4-amine]",13 nM,–,9300 nM
≥ 10000 nM,"NC(=O)c1cnccc1Nc1nc(-c2nn(Cc3ccccc3F)c3ccccc23)ncc1OCCO [Example 13-5, 4-({2-[1-(2-fluorobenzyl)-1H-indazol-3-yl]-5-(2-hydroxyethoxy)pyrimidin-4-yl}amino)pyridine-3-carboxamide]",6.5 nM,–,–
≥ 10000 nM,"CCOC(=O)c1cnccc1Nc1nc(-c2nn(Cc3ccccc3F)c3ccccc23)ncc1O [Example 30-3, ethyl 4-({2-[1-(2-fluorobenzyl)-1H-indazol-3-yl]-5-hydroxypyrimidin-4-yl}amino)pyridine-3-carboxylate]",8.4 nM,–,–
≥ 10000 nM,"COc1cnc(-c2nn(Cc3cccc(CC(C)(C)O)c3)c3ccccc23)nc1Nc1ccncc1 [Example 9-2, 1-[3-({3-[5-methoxy-4-(pyridin-4-ylamino)pyrimidin-2-yl]-1H-indazol-1-yl}methyl)phenyl]-2-methylpropan-2-ol]",21 nM,–,–
8500 nM,"COc1cnc(-c2nn(Cc3ccc(S(F)(F)(F)(F)F)cc3)c3ccccc23)nc1Nc1ccncc1 [Example 2-3-3, 5-methoxy-2-{1-[4-(pentafluoro-λ^6-sulfanyl)benzyl]-1H-indazol-3-yl}-N-(pyridin-4-yl)pyrimidin-4-amine]",360 nM,–,–
–,"CCOC(=O)c1cnccc1Nc1nc(-c2nn(Cc3ccccc3F)c3ccccc23)ncc1OCCO [Example 13-3, ethyl 4-({2-[1-(2-fluorobenzyl)-1H-indazol-3-yl]-5-(2-hydroxyethoxy)pyrimidin-4-yl}amino)pyridine-3-carboxylate]",17 nM,–,≥ 10000 nM
–,"Fc1ccccc1Cn1nc(-c2nccc(Nc3ccncc3)n2)c2ccccc21 [Example 5-3, 2-[1-(2-fluorobenzyl)-1H-indazol-3-yl]-N-(pyridin-4-yl)pyrimidin-4-amine]",28 nM,–,7400 nM
–,"COc1ccc(Cn2nc(-c3ncc(OC)c(Nc4ccncc4)n3)c3ccccc32)cc1 [Example 2-23-1, 5-methoxy-2-[1-(4-methoxybenzyl)-1H-indazol-3-yl]-N-(pyridin-4-yl)pyrimidin-4-amine]",13 nM,–,9300 nM
2800 nM,"CCOc1cc(F)c(Cn2nc(-c3nccc(N(C(C)=O)c4ccncc4)n3)c3ccccc32)c(F)c1 [Example 16-1, N-{2-[1-(4-ethoxy-2,6-difluorobenzyl)-1H-indazol-3-yl]pyrimidin-4-yl}-N-(pyridin-4-yl)acetamide]",170 nM,–,–
≥ 10000 nM,"COc1cnc(-c2nn(Cc3ccccc3F)c3ccccc23)nc1Nc1ccncc1C#N [Example 24-1, 4-({2-[1-(2-fluorobenzyl)-1H-indazol-3-yl]-5-methoxypyrimidin-4-yl}amino)pyridine-3-carbonitrile]",62 nM,–,–
≥ 10000 nM,"O=C(OCCO)c1cnccc1Nc1nc(-c2nn(Cc3ccccc3F)c3ccccc23)ncc1OCCO [Example 13-6, 2-hydroxyethyl 4-({2-[1-(2-fluorobenzyl)-1H-indazol-3-yl]-5-(2-hydroxyethoxy)pyrimidin-4-yl}amino)pyridine-3-carboxylate]",8.6 nM,–,–
–,"CCOc1cc(F)c(Cn2nc(-c3ncc(OCC(=O)N4CC(F)C4)c(Nc4ccncc4)n3)c3ccccc32)c(F)c1 [Example 4-21, 2-({2-[1-(4-ethoxy-2,6-difluorobenzyl)-1H-indazol-3-yl]-4-(pyridin-4-ylamino)pyrimidin-5-yl}oxy)-1-(3-fiuoroazetidin-1-yl)ethanone]",7.8 nM,–,3800 nM
–,"COc1cnc(-c2nn(Cc3c(F)cc(C(N)=O)cc3F)c3ccccc23)nc1Nc1ccncc1 [Example 2-50-1, 3,5-difluoro-4-({3-[5-methoxy-4-(pyridin-4-ylamino)pyrimidin-2-yl]-1H-indazol-1-yl}methyl)benzamide]",11 nM,–,≥ 10000 nM
–,"CCOc1cc(F)c(Cn2nc(-c3nccc(Nc4ccncc4)n3)c3ccccc32)c(F)c1 [Example 5-1, 2-[1-(4-ethoxy-2,6-difluorobenzyl)-1H-indazol-3-yl]-N-(pyridin-4-yl)pyrimidin-4-amine]",5.2 nM,–,1400 nM
–,"COc1ccc(Cn2nc(-c3ncc(OC)c(Nc4cc[nH]c(=O)c4)n3)c3ccccc32)cc1 [Example 24-7, 4-({5-methoxy-2-[1-(4-methoxybenzyl)-1H-indazol-3-yl]pyrimidin-4-yl}amino)pyridin-2(1H)-one]",1200 nM,–,10000 nM
2200 nM,"COc1cnc(-c2nn(Cc3c(Cl)cccc3C(F)(F)F)c3ccccc23)nc1Nc1ccncc1 [Example 2-30-1, 2-{1-[2-chloro-6-(trifluoromethyl)benzyl]-1H-indazol-3-yl}-5-methoxy-N-(pyridin-4-yl)pyrimidin-4-amine]",23 nM,–,–

SMILES,"IC50 [2, 3]",IC50 [1],"IC50 ([2]; 4 days, crystal violet)","IC50 ([2]; Homo sapiens, 96 h)"
"CCOc1cc(F)c(Cn2nc(-c3ncc(OCCS(C)(=O)=O)c(Nc4ccncc4)n3)c3ccccc32)c(F)c1 [Example 37-1, 2-[1-(4-ethoxy-2,6-difluorobenzyl)-1H-indazol-3-yl]-5-[2-(methylsulfonyl)ethoxy]-N-(pyridin-4-yl)pyrimidin-4-amine]",4200 nM,5.7 nM,–,–
